US6825178B1, “Methods and products for treating pseudomonas infection” (The Brigham and Women's Hospital, Inc., priority 1996, dated 2004)
Marks after values point to notes of the source that are not given here.

Key:
Type in all cases: cell-based
[1] = tested on: transformed human airway epithelial cells (CFT1-LCFSN line); assay: Inhibition of internalization of P. aeruginosa strain 149 into CFT1-LCFSN cells (bacterial ingestion assay); conditions: strain 149, CFT1-LCFSN cells
Excerpt: (§1) Cell lines. CFT1-LCFSN cells, carrying a retrovirally introduced chromosomal copy of the wild-type human CFTR gene were kindly provided by J. Olsen, J. Yankaskis and L. Johnson from The University of North Carolina, Chapel Hill, N.C.. The cell line parental to CFT1-LCFSN is designated CFT1; it is a line of human papilloma virus 18 E6/E7 transformed bronchial epithelial cells derived from a CF patient homozygous for ΔF508 CFTR. The CFT1-LCFSN cells have normal chloride ion conductance. CFT1-ΔF508 cells are derived from CFT1 cells and carry a cDNA introduced by a retrovirus vector that encodes the ΔF508 mutant form of CFTR. Cells were grown in supplemented F-12 medium as described in 5% CO2 at 37° C.
(§2) Bacterial strains. P. aeruginosa strains used include PAO1, a well-characterized laboratory strain, and strains 149 and 324, non-mucoid, LPS-smooth clinical isolates of P. aeruginosa from CF patients early in the course of infection. Fresh cultures of P. aeruginosa grown overnight at 37° C. on a tryptic soy agar plate were suspended in supplemented medium to prepare the bacterial inoculum. Approximately 10^6 cfu of the bacterial inoculum were added per well of 10^5, epithelial cells.
(§3) Reagents for inhibition of ingestion assays. Membranes were prepared from C127 cells as described by O'Riordan et al.. Membranes were suspended in 150 mM NaCl, 50 mM Tris, pH 7.5 and 1 mM EDTA and added at the indicated concentration to suspensions of P. aeruginosa strains prior to adding this mixture to CFT1-LCFSN cells to measure bacterial uptake. Membranes from CEM/VbI cells expressing P-glycoprotein and membranes from control CEM cells lacking P-glycoprotein were obtained from James Croop of Harvard Medical School. Purified (˜85%) recombinant CFTR was obtained from Genzyme Corp., and prepared as described. The protein was solubilized in 100 mM NaCl, 10 mM Tris, pH 8.0, 2 mM di-thio-threitol and 0.1% sodium dodecyl sulfate. Monoclonal antibodies raised to synthetic peptides corresponding to the first (MAb CF3) and fourth (MAb CF4) predicted extracellular domains of CFTR, as well as a MAb specific to a peptide representing the carboxy-terminal 14 amino acids of mature CFTR (MAb CF2) were provided by Dr. George Banting, University of Bristol, Bristol, UK [12]. Synthetic peptides were obtained from Chiron Mimetopes, San Diego, Calif. Peptide GRIIASYDPDNKEER (15 amino acids) (SEQ.ID.NO. 3) represents amino acids 103-117 of mature CFTR, peptide […] (31 amino acids) (SEQ.ID.NO. 4) represents amino acids 881-911 of mature CFTR. Peptides were made up as a stock solution in F-12 medium containing 1 μM/μl based on the purity reported by the manufacturer. Peptides were diluted in F-12 tissue culture medium prior to use in assays.
(§4) Bacterial ingestion assay. Cells were released from monolayers in tissue culture flasks by 5 min. of incubation with trypsin-versene mixture (BioWhitaker, Walkersville, Md.), washed, counted and seeded into 96-well tissue culture plates at 10^5 cells/well in supplemented F-12 medium and incubated at 37° C. in 5% CO2. Fresh cultures of P. aeruginosa grown overnight at 37° C. on a tryptic soy agar plate were suspended in supplemented F-12 medium to prepare the bacterial inoculum. Then 10^6 colony forming units (cfu) of the bacterial inoculum were added per well of 10^5 epithelial cells. Bacteria were allowed to invade the epithelial cells for 3 to 4 hours at 37° C., after which nonadherent bacteria were removed by washing. The remaining steps of the assay and the steps involved in the controls have previously been described. Three to 9 replicates were obtained per point, and analyzed using analysis of variance (ANOVA) and the Fisher PLSD statistic to determine pairwise differences. […]

[2] = tested on: transformed human airway epithelial cells (CFT1-LCFSN line); assay: Inhibition of internalization of P. aeruginosa strain PAO1 into CFT1-LCFSN cells (bacterial ingestion assay); conditions: strain PAO1, CFT1-LCFSN cells
Excerpt: as §1, §2
as §3, with “GRIIASYDPDNKEER” left out
as §4

[3] = tested on: transformed human airway epithelial cells (CFT1-LCFSN line); assay: Inhibition of internalization of P. aeruginosa strain 324 into CFT1-LCFSN cells (bacterial ingestion assay); conditions: strain 324, CFT1-LCFSN cells
Excerpt: as §1, §2, §3, §4

| Sequence | Mean cfu of P. aeruginosa internalized (standard deviation) ([1]; 0.001 nanomoles peptide) | Mean cfu of P. aeruginosa internalized (standard deviation) ([1]; 0.01 nanomoles peptide) | Mean cfu of P. aeruginosa internalized (standard deviation) ([1]; 0.1 nanomoles peptide) | Mean cfu of P. aeruginosa internalized (standard deviation) ([1]; 1 nanomoles peptide) | Mean cfu of P. aeruginosa internalized (standard deviation) ([2]; 0.001 nanomoles peptide) | Mean cfu of P. aeruginosa internalized (standard deviation) ([2]; 0.01 nanomoles peptide) | Mean cfu of P. aeruginosa internalized (standard deviation) ([2]; 0.1 nanomoles peptide) | Mean cfu of P. aeruginosa internalized (standard deviation) ([2]; 1 nanomoles peptide) | Mean cfu of P. aeruginosa internalized (standard deviation) ([3]; 0.001 nanomoles peptide) | Mean cfu of P. aeruginosa internalized (standard deviation) ([3]; 0.01 nanomoles peptide) | Mean cfu of P. aeruginosa internalized (standard deviation) ([3]; 0.1 nanomoles peptide) | Mean cfu of P. aeruginosa internalized (standard deviation) ([3]; 1 nanomoles peptide) |
| --- | --- | --- | --- | --- | --- | --- | --- | --- | --- | --- | --- | --- |
| GRIIASYDPDNKEER (listed as Homo Sapiens) [First domain] | 5.73 × 10^4 (4.006 × 10^3) cfu | 1.705 × 10^4 (2.1333 × 10^3)^a cfu | 7.0167 × 10^3 (8.542 × 10^2)^a cfu | 3.7833 × 10^3 (4.491 × 10^2)^a cfu | 5.533 × 10^4 (5.2986 × 10^3) cfu | 3.482 × 10^4 (3.8473 × 10^3)^a cfu | 2.513 × 10^4 (1.6609 × 10^3)^a cfu | 2.383 × 10^4 (4.6207 × 10^3)^a cfu | 1.3938 × 10^5 (7.6735 × 10^3) cfu | 1.405 × 10^5 (9.4323 × 10^3) cfu | 7.232 × 10^4 (5.6982 × 10^3)^a cfu | 1.462 × 10^4 (2.6955 × 10^3)^a cfu |
| LWLLGNTPLQDKGNSTHSRNNSYAVIITSTS (listed as Homo Sapiens) [Fourth domain, reference compound] | 4.752 × 10^4 (5.9915 × 10^3) cfu | 4.86 × 10^4 (4.6463 × 10^3) cfu | 5.528 × 10^4 (6.0598 × 10^3) cfu | 5.735 × 10^4 (4.0009 × 10^3) cfu | 6.978 × 10^4 (5.4745 × 10^3) cfu | 7.23 × 10^4 (3.6721 × 10^3) cfu | 7.488 × 10^4 (5.0653 × 10^3) cfu | 8.708 × 10^4 (4.0519 × 10^3) cfu | 1.3275 × 10^5 (9.408 × 10^3) cfu | 1.412 × 10^5 (7.1986 × 10^3) cfu | 1.416 × 10^5 (1.195 × 10^4) cfu | 1.42 × 10^5 (1.746 × 10^4) cfu |
